Experimental data reported in PMC5632672, “Generation of Persister Cells of Pseudomonas aeruginosa and Staphylococcus aureus by Chemical Treatment and Evaluation of Their Susceptibility to Membrane-Targeting Agents” (Frontiers in Microbiology, 2017).
No end group written: not given here.

Columns and labels:
[1] = system: Staphylococcus aureus ATCC 33591; conditions: ATCC 33591, 3 h
[2] = system: Pseudomonas aeruginosa ATCC 27853; conditions: ATCC 27853, 3 h

FLPIVGLLKSLLK-NH2 [TB_L1FK]
MBC, S. aureus CCCP-pretreated [1]: 3.5 µM
MBC, S. aureus CCCP-untreated [1]: 7 µM
MBC, P. aeruginosa CCCP-pretreated [2]: 14 µM
MBC, P. aeruginosa CCCP-untreated [2]: 14 µM
